These results are taken from patent publication US20250263408A1 (Uniquest Pty Ltd, priority 2022, published 2025).

In assay [1] the target is T1, Ba/F3-Syk cells (Homo sapiens, UniProt P43405).
T1 construct: fused on or other part: Possible but unprinted fusion partner: TEL (ETV6), the usual partner for Ba/F3 lines transformed by Syk; Nothing on a partner is printed
The assay can be described thus: Ba/F3 Proliferation Assay, Ba/F3-Syk cells (Resazurin). In kind it is cell-based. Conditions: 48-hour incubation. The method, then:
(§1) Ba/F3-Syk and Ba/F3-WT (wild type) cells were maintained at ≤1×10^6 cell/mL in RPMI (Life Technologies) with 10% FBS at 37° C. and 5% CO2 for a maximum of four weeks. Ba/F3-WT additionally contained 2 ng/mL mIL-3 (R&D Systems) to induce cellular growth. Cells were counted and dispensed at 5000 cells/well using a Multidrop Liquid Dispenser in a volume of 45 μL into black 384-well TC treated plates (Greiner) and incubated for four hours in complete media (+mIL-3 for Ba/F3-WT). Compounds were serially diluted in 100% DMSO, prior to an intermediate dilution in RPMI media. 5 μL of compound (0.4% final DMSO) was added to the cells, followed by a 48-hour incubation period. 5 μL of Resazurin (60 μM final) was then added and cells were incubated at 37° C. for three hours, before fluorescence (λex530/λem585) was measured using an Ensight Multimode Plate Reader (Perkin Elmer).

Assay [2] deals with Ba/F3-WT (wild type) cells. Description: Ba/F3 Proliferation Assay, Ba/F3-WT (wild type) cells with mIL-3 (Resazurin). In kind it is cell-based. The conditions noted are these: Ba/F3-WT cells +mIL-3, 48-hour incubation. How it is done: as §1
Background: Resazurin is reduced to fluorescent resorufin, in cell work by metabolically active cells.

One may read the EC50 as the concentration giving half of the maximal effect. For the compound “5-{[(2R)-6,6-dimethylmorpholin-2-yllmethoxy}-7-[1-(3-methyloxolan-3-yl)-1H-pyrazol-4-yl]-1,6-naphthyridine [Compound 10.13]”, the EC50 is 0.0909 µM in assay [1] and 3.21 µM in assay [2].
In the same order, the values of “7-(1-methyl-1H-pyrrol~3-yl)-5-{[(2S)-2-methylmorpholin-2-yl]methoxy}-1,6-naphthyridine [Compound 10.7]” are 0.274 µM and 1.2 µM.
For “7-(1-tert-butyl-1H-pyrazol-4-yl)-5-{[(2R)-2-ethylmorpholin-2-yl]methoxy}-1,6-naphthyridine [Compound 10.15]”, in that order: 0.0922 µM and 1.68 µM.
As for `Cn1cc(-c2cc3ncccc3c(OC[C@@H]3CN[C@H]4CCC[C@H]4O3)n2)cn1` (racemic) [Compound 2.53, 5-{[rel-(2R,4aR,7aS)-octahydrocyclopenta[b][1,4]oxazin-2-yl]methoxy}-7-(1-methyl-1H-pyrazol-4-yl)-1,6-naphthyridine], the half-maximal effective concentration (EC50) was found to be 0.129 µM in assay [1] and 2.56 µM in assay [2] (Mus musculus, BaF3, 48 h).
For `C[C@@H]1O[C@@H](COc2nc(-c3cnn(C(C)(C)C)c3)cc3ncccc23)CN[C@@H]1C` (racemic) [Compound 2.80, 7-(1-tert-butyl-1H-pyrazol-4-yl)-5-{[rel-(2S,5S,6R)-5,6-dimethylmorpholin-2-yl]methoxy}-1,6-naphthyridine], the EC50 amounted to 0.036 µM in assay [1] and 1.6 µM in assay [2] (Mus musculus, BaF3, 48 h).
For `Cn1cc(-c2cc3ncccc3c(OC[C@@H]3CN[C@@H]4CCC[C@@H]4O3)n2)cn1` (relative stereo) [Compound 2.54, 5-{[rel-(2S,4aR,7aS)-octahydrocyclopenta[b][1,4]oxazin-2-yl]methoxy}-7-(1-methyl-1H-pyrazol-4-yl)-1,6-naphthyridine], in that order: 0.288 µM and 1.58 µM.
For `Cn1ccc(-c2cc3ncccc3c(OC[C@@H]3CN[C@@H]4C[C@@H]4O3)n2)c1` (relative stereo) [Compound 2.71, 7-(1-methyl-1H-pyrrol-3-yl)-5-{[(rel-1S,3S,6R)-2-oxa-5-azabicyclo[4.1.0]heptan-3-yl]methoxy}-1,6-naphthyridine], in that order: 1.33 µM and > 10 µM.
As to `C[C@@H]1O[C@H](COc2nc(-c3cnn(C(C)(C)C)c3)cc3ncccc23)CN[C@@H]1C` (relative stereo) [Compound 2.81, 7-(1-tert-butyl-1H-pyrazol-4-yl)-5-{[rel-(2S,5R,6S)-5,6-dimethylmorpholin-2-yl]methoxy}-1,6-naphthyridine], the half-maximal effective concentration (EC50) in assay [1] turned out to be 0.0732 µM; in assay [2] (Mus musculus, BaF3, 48 h) it was 2.07 µM.
For `CC(C)(C)n1cc(-c2cc3ncccc3c(OC[C@@H]3CN[C@H]4CCC[C@H]4O3)n2)cn1` (relative stereo) [Compound 2.85, 5-{[rel-(2S,4aS,7aR)-octahydrocyclopenta[b][1,4]oxazin-2-yl]methoxy}-7-(1-tert-butyl-1H-pyrazol-4-yl)-1,6-naphthyridine], the response in assay [1] was half-maximal at 0.0593 µM (EC50).
`CC(C)(C)n1cc(-c2cc3ncccc3c(O[C@@H]3CC[C@@H]4NCCO[C@@H]43)n2)cn1` (relative stereo) [Compound 2.90, 5-[rel-(4aS,7R,7aS)-octahydrocyclopenta[b][1,4]oxazin-7-yloxy]-7-(1-tert-butyl-1H-pyrazol-4-yl)-1,6-naphthyridine]: the half-maximal effective concentration (EC50) in assay [1] is 0.0546 µM; in assay [2] (Mus musculus, BaF3, 48 h), > 1 µM.
For `CC(C)(C)n1cc(-c2cc3ncccc3c(O[C@H]3CC[C@@H]4NCCO[C@@H]43)n2)cn1` (relative stereo) [Compound 2.91, 5-[rel-(4aS,7S,7aS)-octahydrocyclopenta[b][1,4]oxazin-7-yloxy]-7-(1-tert-butyl-1H-pyrazol-4-yl)-1,6-naphthyridine], in that order: 0.0518 µM and 1.04 µM.
As to `CC(C)(C)n1cc(-c2cc3ncccc3c(OC[C@H]3OC[C@@H]4C[C@H]3N4)n2)cn1` (relative stereo) [Compound 2.97, 7-(1-tert-butyl-1H-pyrazol-4-yl)-5-{[rel-(1R,2S,5S)-3-oxa-6-azabicyclo[3.1.1]heptan-2-yl]methoxy}-1,6-naphthyridine], the EC50 amounted to 0.347 µM in assay [1] and 4.24 µM in assay [2].
For `CC(C)(C)n1cc(-c2cc3ncccc3c(OC[C@H]3O[C@H]4CCN[C@@H]3C4)n2)cn1` (single isomer, unassigned) [Compound 13.11], the EC50 in assay [1] was 1.94 µM; in assay [2] (Mus musculus, BaF3, 48 h) it was > 10 µM.
For the compound `CC(C)(C)n1cc(-c2cc3ncccc3c(OC[C@H]3O[C@H]4CCN[C@@H]3C4)n2)cn1` (single isomer, unassigned) [Compound 13.12], the results for the EC50 in assay [1] and in assay [2] were 0.0744 µM and > 5 µM, respectively.
In turn, `CC(C)(C)n1cc(-c2cc3ncccc3c(OC[C@@H]3CN[C@H]4CCC[C@H]4O3)n2)cn1` (stereo in doubt) [Compound 2.94, 5-{[(2S,4aS,7aR)-octahydrocyclopenta[b][1,4]oxazin-2-yl]methoxy}-7-(1-tert-butyl-1H-pyrazol-4-yl)-1,6-naphthyridine] displayed a concentration for a half-maximal effect (EC50) in assay [1] of 0.145 µM.
As for `CC(C)(C)n1cc(-c2cc3ncccc3c(OC[C@H]3CN[C@@H]4CCC[C@@H]4O3)n2)cn1` (stereo in doubt) [Compound 2.95, 5-{[(2R,4aR,7aS)-octahydrocyclopenta[b][1,4]oxazin-2-yl]methoxy}-7-(1-tert-butyl-1H-pyrazol-4-yl)-1,6-naphthyridine], the EC50 in assay [1] is 0.0221 µM; in assay [2] (Mus musculus, BaF3, 48 h), 1.85 µM.
In the same order, the values of `Cc1ccnc2cc(-c3cnn(C(C)C)c3)cc(OC[C@@H]3CNCC(C)(C)O3)c12` (stereo in doubt) [Compound 14.7, 5-[(6,6-dimethylmorpholin-2-yl)methoxy]-4-methyl-7-[1-(propan-2-yl)-1H-pyrazol-4-yl]quinoline] are 0.0024 µM and 0.93 µM.
For `C=Cc1cnc2cc(-c3cnn(C(C)(C)C)c3)nc(OC[C@@H]3CNCC(C)(C)O3)c2c1` (stereo in doubt) [Compound 14.8, 7-(1-tert-butyl-1H-pyrazol-4-yl)-5-[(6,6-dimethylmorpholin-2-yl)methoxy]-3-ethenyl-1,6-naphthyridine], in that order: 1.17 µM and > 10 µM.
For `CC(C)(C)n1cc(-c2cc(OC[C@@H]3CNCCO3)c3cccnc3c2)cn1` [Compound 1, 7-(1-tert-butyl-1H-pyrazol-4-yl)-5-{[(2S)-morpholin-2-yl]methoxy}quinoline], in that order: 0.0442 µM and 4.67 µM.
With `Cn1cc(-c2cc(OC[C@@H]3CNCCO3)c3cccnc3c2)cn1` [Compound 2, 7-(1-methyl-1H-pyrazol-4-yl)-5-{[(2S)-morpholin-2-yl]methoxy}quinoline], the EC50 in assay [1] stood at 0.166 µM; in assay [2] (Mus musculus, BaF3, 48 h), 2.43 µM.
For `Cc1noc(C)c1-c1cc2ncccc2c(OC[C@@H]2CNCCO2)n1` [Compound 2.14, 7-(3,5-dimethyl-1,2-oxazol-4-yl)-5-{[(2S)-morpholin-2-yl]methoxy}-1,6-naphthyridine], in that order: 3.62 µM and 4.83 µM.
In the same order, the values of `c1cnc2cc(-c3ccn[nH]3)nc(OC[C@@H]3CNCCO3)c2c1` [Compound 2.28, 5-{[(2S)-morpholin-2-yl]methoxy}-7-(1H-pyrazol-5-yl)-1,6-naphthyridine] are 0.734 µM and > 10 µM.
For `c1cnc2cc(-c3cncs3)nc(OC[C@@H]3CNCCO3)c2c1` [Compound 2.29, 5-{[(2S)-morpholin-2-yl]methoxy}-7-(1,3-thiazol-5-yl)-1,6-naphthyridine], in that order: 1.02 µM and > 10 µM.
On to `Cc1ncc(-c2cc3ncccc3c(OC[C@@H]3CNCCO3)n2)s1` [Compound 2.30, 7-(2-methyl-1,3-thiazol-5-yl)-5-{[(2S)-morpholin-2-yl]methoxy}-1,6-naphthyridine], for which the EC50 in assay [1] worked out at 0.206 µM; in assay [2] (Mus musculus, BaF3, 48 h) it was 6.97 µM.
For `Cn1ccc(-c2cc3ncccc3c(OC[C@@H]3CNCCO3)n2)n1` [Compound 2.31, 7-(1-methyl-1H-pyrazol-3-yl)-5-{[(2S)-morpholin-2-yl]methoxy}-1,6-naphthyridine], in that order: 1.74 µM and > 10 µM.
In the same order, the values of `Clc1ccc(-c2cc3ncccc3c(OC[C@@H]3CNCCO3)n2)s1` [Compound 2.33, 7-(5-chlorothiophen-2-yl)-5-{[(2S)-morpholin-2-yl]methoxy}-1,6-naphthyridine] are 0.391 µM and 1.59 µM.
As to `Clc1csc(-c2cc3ncccc3c(OC[C@@H]3CNCCO3)n2)c1` [Compound 2.34, 7-(4-chlorothiophen-2-yl)-5-{[(2S)-morpholin-2-yl]methoxy}-1,6-naphthyridine], the EC50 in assay [1] is 0.394 µM; in assay [2] (Mus musculus, BaF3, 48 h), 1.56 µM.
In the same order, the values of `Cc1cc(-c2cc3ncccc3c(OC[C@@H]3CNCCO3)n2)sc1Cl` [Compound 2.35, 7-(5-chloro-4-methylthiophen-2-yl)-5-{[(2S)-morpholin-2-yl]methoxy}-1,6-naphthyridine] are 0.667 µM and 0.619 µM.
For `CCc1ccc(-c2cc3ncccc3c(OC[C@@H]3CNCCO3)n2)s1` [Compound 2.36, 7-(5-ethylthiophen-2-yl)-5-{[(2S)-morpholin-2-yl]methoxy}-1,6-naphthyridine], in that order: 0.279 µM and 2.05 µM.
